According to patent US10894797B2, “Fused tricyclic ring derivatives as SRC homology-2 phosphatase inhibitors” (Nikang Therapuetics, Inc., priority 2018, dated 2021):
pIC50: −log10 of the molar value.

Target: SHP2 (Homo sapiens (Human), UniProt Q06124)
Experiment: SHP2 allosteric inhibition assay (DiFMUP substrate, bisphos-IRS1 peptide activation)
Format: biochemical
Details: 0.33 nM SHP2, 0.5 μM bisphos-IRS1 peptide, 100 uM DiFMUP, room temperature
Description: At the basal state, SHP2 is auto-inhibited and access of substrates to the catalytic site is blocked by the […] interactions between the SH2 domains and the PTP domain. When bis-tyrosyl-phosphorylated peptides bind to SH2 domain of SHP2, the PTP domain becomes available for substrate recognition and reaction catalysis and SHP2 is allosterically activated. SHP2 catalytic activity can be measured using a fluorogenic artificial substrate DiFMUP.
The phosphatase reactions were carried out at room temperature in 384-well black polystyrene plates (Greiner Bio-One, Cat #784076) using assay buffers containing 60 mM HEPES, pH 7.2, 75 mM NaCl, 75 mM KCl, 1 mM EDTA, 0.05% P-20, and 5 mM DTT.
0.33 nM of SHP2 was co-incubated with of 0.5 μM of bisphos-IRS 1 peptide (sequence: H2N-LN(pY)IDLDLV(dPEG8)LST(pY)ASINFQK-amide) and various concentrations of compounds for 30-60 min at room temperature. Then the reaction was initiated by addition of the surrogate substrate DiFMUP (Invitrogen, Cat #D6567, 100 uM final).
The real-time conversion of DiFMUP to DiFMU (6,8-difluoro-7-hydroxyl-4-methyl-coumarin) was measured every 5 min for 30 min using a microplate reader (CLARIOstar, BMG Labtech) with excitation and emission wavelengths of 340 nm and 450 nm, respectively. Initial reaction rates were determined by linear fitting of the data and the inhibitor dose response curves were analyzed using normalized IC50 regression curve fitting with control-based normalization.

Sequence of SHP2 (Q06124 whole entry): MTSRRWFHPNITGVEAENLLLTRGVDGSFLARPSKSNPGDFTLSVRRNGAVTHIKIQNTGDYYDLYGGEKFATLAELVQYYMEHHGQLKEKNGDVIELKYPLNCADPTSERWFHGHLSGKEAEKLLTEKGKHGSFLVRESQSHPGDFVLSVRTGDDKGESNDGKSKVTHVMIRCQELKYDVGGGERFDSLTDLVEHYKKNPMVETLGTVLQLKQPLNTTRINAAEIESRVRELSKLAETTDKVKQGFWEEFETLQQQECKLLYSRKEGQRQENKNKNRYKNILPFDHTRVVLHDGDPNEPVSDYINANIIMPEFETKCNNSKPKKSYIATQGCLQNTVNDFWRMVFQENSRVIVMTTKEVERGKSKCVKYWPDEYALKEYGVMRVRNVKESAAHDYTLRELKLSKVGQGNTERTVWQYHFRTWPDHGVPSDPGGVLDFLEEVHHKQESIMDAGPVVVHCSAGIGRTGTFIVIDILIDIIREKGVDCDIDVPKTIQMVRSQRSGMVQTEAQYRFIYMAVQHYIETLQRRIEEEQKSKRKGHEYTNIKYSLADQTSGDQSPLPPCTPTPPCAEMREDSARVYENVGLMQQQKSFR

SMILES | pIC50
COCOC[C@H]1C[C@H]2COc3c(Sc4cnc(N5CCC6(CC5)CO[C@@H](C)[C@H]6N)cn4)ccnc3N2C1 [Compound 42, (3S,4S)-8-(5-(((6aS,8S)-8-((methoxymethoxy)methyl)-6a,7,8,9-tetrahydro-6H-pyrido[3,2-b]pyrrolo[1,2-d][1,4]oxazin-4-yl)thio)pyrazin-2-yl)-3-methyl-2-oxa-8-azaspiro[4.5]decan-4-amine] | 8.23
COC[C@H]1C[C@H]2COc3c(Sc4cnc(N5CCC6(CC5)CO[C@@H](C)[C@H]6N)cn4)ccnc3N2C1 [Compound 43, (3S,4S)-8-(5-(((6aS,8S)-8-(methoxymethyl)-6a,7,8,9-tetrahydro-6H-pyrido[3,2-b]pyrrolo[1,2-d][1,4]oxazin-4-yl)thio)pyrazin-2-yl)-3-methyl-2-oxa-8-azaspiro[4.5]decan-4-amine] | 8.35
COCOC[C@H]1C[C@H]2COc3c(Sc4ncc(N5CCC6(CC5)CO[C@@H](C)[C@H]6N)nc4N)ccnc3N2C1 [Compound 44, (3S,4S)-8-(6-amino-5-(((6aS,8S)-8-((methoxymethoxy)methyl)-6a,7,8,9-tetrahydro-6H-pyrido[3,2-b]pyrrolo[1,2-d][1,4]oxazin-4-yl)thio)pyrazin-2-yl)-3-methyl-2-oxa-8-azaspiro[4.5]decan-4-amine] | 8.23
COC[C@H]1C[C@H]2COc3c(Sc4ncc(N5CCC6(CC5)CO[C@@H](C)[C@H]6N)nc4N)ccnc3N2C1 [Compound 45, (3S,4S)-8-(6-amino-5-(((6aS,8S)-8-(methoxymethyl)-6a,7,8,9-tetrahydro-6H-pyrido[3,2-b]pyrrolo[1,2-d][1,4]oxazin-4-yl)thio)pyrazin-2-yl)-3-methyl-2-oxa-8-azaspiro[4.5]decan-4-amine] | 8.03
COCOC[C@H]1C[C@H]2COc3c(Sc4cnc(N5CCC6(CC5)Cc5ncccc5[C@H]6N)cn4)ccnc3N2C1 [Compound 46, (S)-1′-(5-(((6aS,8S)-8-((methoxymethoxy)methyl)-6a,7,8,9-tetrahydro-6H-pyrido[3,2-b]pyrrolo[1,2-d][1,4]oxazin-4-yl)thio)pyrazin-2-yl)-5,7-dihydrospiro[cyclopenta[b]pyridine-6,4′-piperidin]-5-amine] | 8.41
COCOC[C@H]1C[C@H]2COc3c(Sc4ncc(N5CCC6(CC5)Cc5ncccc5[C@H]6N)nc4N)ccnc3N2C1 [Compound 47, (S)-1′-(6-amino-5-(((6aS,8S)-8-((methoxymethoxy)methyl)-6a,7,8,9-tetrahydro-6H-pyrido[3,2-b]pyrrolo[1,2-d][1,4]oxazin-4-yl)thio)pyrazin-2-yl)-5,7-dihydrospiro[cyclopenta[b]pyridine-6,4′-piperidin]-5-amine] | 8.08
COCOC[C@H]1C[C@H]2COc3c(Sc4cnc(N5CCC6(CC5)Cc5ncccc5[C@H]6N)c(CO)n4)ccnc3N2C1 [Compound 48, (3-((S)-5-amino-5,7-dihydrospiro[cyclopenta[b]pyridine-6,4′-piperidin]-1′-yl)-6-(((6aS,8S)-8-((methoxymethoxy)methyl)-6a,7,8,9-tetrahydro-6H-pyrido[3,2-b]pyrrolo-[1,2-d][1,4]oxazin-4-yl)thio)pyrazin-2-yl)methanol] | 8.48
COCOC[C@H]1C[C@H]2COc3c(Sc4nc(CO)c(N5CCC6(CC5)CO[C@@H](C)[C@H]6N)nc4C)ccnc3N2C1 [Compound 49, (3-((3S,4S)-4-amino-3-methyl-2-oxa-8-azaspiro[4.5]decan-8-yl)-6-(((6aS,8S)-8-((methoxymethoxy)methyl)-6a,7,8,9-tetrahydro-6H-pyrido[3,2-b]pyrrolo[1,2-d][1,4]oxazin-4-yl)thio)-5-methylpyrazin-2-yl)methanol] | 7.92
COCOC[C@@H]1C[C@H]2COc3c(Sc4cnc(N5CCC6(CC5)CO[C@@H](C)[C@H]6N)c(CO)n4)ccnc3N2C1 [Compound 50, (3-((3S,4S)-4-amino-3-methyl-2-oxa-8-azaspiro[4.5]decan-8-yl)-6-(((6aS,8R)-8-((methoxymethoxy)methyl)-6a,7,8,9-tetrahydro-6H-pyrido[3,2-b]pyrrolo[1,2-d][1,4]oxazin-4-yl)thio)pyrazin-2-yl)methanol] | 8.46
COCOC[C@H]1C[C@@H]2COc3c(Sc4cnc(N5CCC6(CC5)CO[C@@H](C)[C@H]6N)c(CO)n4)ccnc3N2C1 [Compound 51, (3-((3S,4S)-4-amino-3-methyl-2-oxa-8-azaspiro[4.5]decan-8-yl)-6-(((6aR,8S)-8-((methoxymethoxy)methyl)-6a,7,8,9-tetrahydro-6H-pyrido[3,2-b]pyrrolo[1,2-d][1,4]oxazin-4-yl)thio)pyrazin-2-yl)methanol] | 8.31
COCOC[C@@H]1C[C@@H]2COc3c(Sc4cnc(N5CCC6(CC5)CO[C@@H](C)[C@H]6N)c(CO)n4)ccnc3N2C1 [Compound 52, (3-((3S,4S)-4-amino-3-methyl-2-oxa-8-azaspiro[4.5]decan-8-yl)-6-(((6aR,8R)-8-((methoxymethoxy)methyl)-6a,7,8,9-tetrahydro-6H-pyrido[3,2-b]pyrrolo[1,2-d][1,4]oxazin-4-yl)thio)pyrazin-2-yl)methanol] | 8.43
